From ChEMBL document CHEMBL1201862, “PubChem BioAssay data set” (2004)
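Where inhibition never reached the appropriate level, the endpoint shown equals the highest concentration tested. Otherwise, values were interpolated linearly from a five-concentration, 48-hour dose response in 96-well plates. GI50 is the concentration that inhibits growth by half.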 Activity calls are given as the source filed them. Rule as the data show it: active = GI50 up to about 1.1 µM and inactive = higher.

Key:
Assay in all cases: NCI-60 cell line screen, 48 h
[1] = tested on: SK-MEL-5
[2] = tested on: SNB-19
[3] = tested on: COLO 205
[4] = tested on: KM-20L2
[5] = tested on: HCT-116
[6] = tested on: SF-295
[7] = tested on: NCI-H460
[8] = tested on: NCI-H522
[9] = tested on: 786-0
[10] = tested on: SN12C
[11] = tested on: LOX IMVI
[12] = tested on: U-251
[13] = tested on: ACHN
[14] = tested on: NCI-H23
[15] = tested on: OVCAR-3
[16] = tested on: PC-3
[17] = tested on: NCI/ADR-RES
[18] = tested on: MDA-N
[19] = tested on: BT-549
[20] = tested on: T47D

Row | SMILES | GI50 [1] | GI50 [2] | GI50 [3] | GI50 [4] | GI50 [5] | GI50 [6] | GI50 [7] | GI50 [8] | GI50 [9] | GI50 [10] | GI50 [11] | GI50 [12] | GI50 [13] | GI50 [14] | GI50 [15] | GI50 [16] | GI50 [17] | GI50 [18] | GI50 [19] | GI50 [20]
1 | O=C(O)OC12CCCCCC1C(=O)C1CCCCC12 (stereo not drawn) | > 100 µM (inactive) | 89.5 µM (inactive) | > 100 µM (inactive) | > 100 µM (inactive) | 57.4 µM (inactive) | > 100 µM (inactive) | 77.4 µM (inactive) | 65.8 µM (inactive) | > 100 µM (inactive) | > 100 µM (inactive) | > 100 µM (inactive) | > 100 µM (inactive) | > 100 µM (inactive) | > 100 µM (inactive) |  |  |  |  |  | 
2 | CSC(=S)c1ccc(C(=S)SC)cc1 | > 100 µM (inactive) | > 100 µM (inactive) | > 100 µM (inactive) | > 100 µM (inactive) | > 100 µM (inactive) | > 100 µM (inactive) | > 100 µM (inactive) | > 100 µM (inactive) | > 100 µM (inactive) | > 100 µM (inactive) | > 100 µM (inactive) | > 100 µM (inactive) |  | > 100 µM (inactive) | > 100 µM (inactive) |  |  |  |  | 
3 | Cn1c(N)nc(=O)c2c1N(C1OC(CO)C(O)C1O)CN2Cc1ccccc1 (stereo not drawn) | > 100 µM (inactive) | > 100 µM (inactive) | > 100 µM (inactive) | > 100 µM (inactive) | > 100 µM (inactive) | > 100 µM (inactive) | > 100 µM (inactive) | > 100 µM (inactive) | > 100 µM (inactive) | > 100 µM (inactive) |  | > 100 µM (inactive) | > 100 µM (inactive) | > 100 µM (inactive) | > 100 µM (inactive) |  |  |  |  | 
4 | COc1cccc2c1N[S@](=O)S2 |  | 38.1 µM (inactive) |  | > 100 µM (inactive) | > 100 µM (inactive) | 95.7 µM (inactive) |  | 86.1 µM (inactive) | > 100 µM (inactive) | 63.5 µM (inactive) | 50.8 µM (inactive) | 39.3 µM (inactive) | > 100 µM (inactive) | > 100 µM (inactive) | > 100 µM (inactive) |  |  |  |  | 
5 | CCC(CO)Nc1nc2c(c(=O)n(C)c(=O)n2C)n1CCO (stereo not drawn) | > 100 µM (inactive) | > 100 µM (inactive) | > 100 µM (inactive) | > 100 µM (inactive) | > 100 µM (inactive) | > 100 µM (inactive) |  |  | > 100 µM (inactive) | > 100 µM (inactive) |  | > 100 µM (inactive) | > 100 µM (inactive) | > 100 µM (inactive) | > 100 µM (inactive) |  |  |  |  | 
6 | COc1ccc(/N=C/C=C/Nc2ccc(OC)cc2)cc1 | 4.66 µM (inactive) | 3.43 µM (inactive) | 3.99 µM (inactive) |  | 3.66 µM (inactive) | 7.98 µM (inactive) | 13.3 µM (inactive) | 5.42 µM (inactive) | 4 µM (inactive) | 3.9 µM (inactive) | 2.44 µM (inactive) | 5.35 µM (inactive) | 15.6 µM (inactive) | 19.6 µM (inactive) | 1.84 µM (inactive) | 12 µM (inactive) | 6.95 µM (inactive) | 4.78 µM (inactive) | 4.18 µM (inactive) | 15 µM (inactive)
7 | Cc1cc(O)c2c3c(ccc2c1)C(=O)c1c(O)cccc1C3=O [TETRANGULOL] | 0.33 µM (active) | 19.9 µM (inactive) | 3.25 µM (inactive) |  | 11.2 µM (inactive) | 17.4 µM (inactive) | 0.653 µM (active) | 0.957 µM (active) | 7.46 µM (inactive) | 72.6 µM (inactive) | 5.57 µM (inactive) | 21 µM (inactive) | 17.7 µM (inactive) | 3.98 µM (inactive) | 0.397 µM (active) | 16.1 µM (inactive) | 5.97 µM (inactive) | 0.188 µM (active) | 55.5 µM (inactive) | 5.14 µM (inactive)
8 | O=C1C[C@@H]2[C@@H](CCC23CC3)N1 | > 100 µM (inactive) | > 100 µM (inactive) | > 100 µM (inactive) | > 100 µM (inactive) | > 100 µM (inactive) | > 100 µM (inactive) | > 100 µM (inactive) | > 100 µM (inactive) | > 100 µM (inactive) | > 100 µM (inactive) | > 100 µM (inactive) | > 100 µM (inactive) |  | > 100 µM (inactive) | > 100 µM (inactive) |  |  |  |  | 
9 | O=c1[nH]nc(Cc2ccccc2)n1N=C1CCCCC1 | > 100 µM (inactive) | > 100 µM (inactive) | > 100 µM (inactive) |  | > 100 µM (inactive) | > 100 µM (inactive) | > 100 µM (inactive) | > 100 µM (inactive) | > 100 µM (inactive) | > 100 µM (inactive) | > 100 µM (inactive) | > 100 µM (inactive) | > 100 µM (inactive) | > 100 µM (inactive) | > 100 µM (inactive) | > 100 µM (inactive) | > 100 µM (inactive) | > 100 µM (inactive) | > 100 µM (inactive) | > 100 µM (inactive)
10 | C=CCn1c(=O)c(C(=O)NC(=O)OCC)cn(C2CCCCC2)c1=O | > 100 µM (inactive) | > 100 µM (inactive) | > 100 µM (inactive) | > 100 µM (inactive) | > 100 µM (inactive) | > 100 µM (inactive) | > 100 µM (inactive) |  | > 100 µM (inactive) | > 100 µM (inactive) | > 100 µM (inactive) | > 100 µM (inactive) | > 100 µM (inactive) | > 100 µM (inactive) | > 100 µM (inactive) |  |  |  |  | 
11 | Oc1cc(O)c2c(c1)OC(c1ccc(O)c(O)c1)C(OC1(c3cc(O)c(O)c(O)c3)Oc3cc(O)cc(O)c3C(O)C1O)C2 (stereo not drawn) | 18.3 µM (inactive) | 55.1 µM (inactive) | 31.8 µM (inactive) |  | 24.6 µM (inactive) | 33.1 µM (inactive) | 18.4 µM (inactive) | 21.4 µM (inactive) | 25.7 µM (inactive) | 20.8 µM (inactive) | 18.3 µM (inactive) | 20.8 µM (inactive) | 38.4 µM (inactive) | 20.9 µM (inactive) | 35.6 µM (inactive) | 49.7 µM (inactive) | 30.2 µM (inactive) | 20.3 µM (inactive) | 26.8 µM (inactive) | 37.6 µM (inactive)
12 | CCC(=O)n1c(=O)n(-c2ccc([N+](=O)[O-])cc2)c(=O)n1C(=O)CC | > 100 µM (inactive) | > 100 µM (inactive) | > 100 µM (inactive) |  | > 100 µM (inactive) | > 100 µM (inactive) | > 100 µM (inactive) | > 100 µM (inactive) | > 100 µM (inactive) | > 100 µM (inactive) | > 100 µM (inactive) | > 100 µM (inactive) | > 100 µM (inactive) | > 100 µM (inactive) | > 100 µM (inactive) | > 100 µM (inactive) | > 100 µM (inactive) | > 100 µM (inactive) | > 100 µM (inactive) | > 100 µM (inactive)
13 | Cc1nc2ccc(N)cc2nc1O | > 100 µM (inactive) | > 100 µM (inactive) | > 100 µM (inactive) | > 100 µM (inactive) | > 100 µM (inactive) | > 100 µM (inactive) | > 100 µM (inactive) |  | > 100 µM (inactive) |  | > 100 µM (inactive) | > 100 µM (inactive) | > 100 µM (inactive) |  | > 100 µM (inactive) |  |  |  |  | 
14 | CCc1nc(N)nc(N)c1-c1ccc(Cc2ccccc2)c([N+](=O)[O-])c1 | < 0.01 µM (active) | 1.51 µM (inactive) | 0.561 µM (active) |  | < 0.01 µM (active) | 0.0116 µM (active) | < 0.01 µM (active) | 0.16 µM (active) | < 0.01 µM (active) | 0.247 µM (active) | < 0.01 µM (active) | < 0.0178 µM (active) | < 0.01 µM (active) | 0.0171 µM (active) | 0.873 µM (active) | < 0.0353 µM (active) | 0.0475 µM (active) | < 0.046 µM (active) | 13 µM (inactive) | 6.95 µM (inactive)
15 | CC(C)=CCC[C@](C)(O[C@@H]1O[C@H](CO)[C@@H](O)[C@H](O)[C@H]1O)[C@H]1CC[C@]2(C)[C@@H]1[C@H](O)C[C@@H]1[C@@]3(C)CC[C@H](O)C(C)(C)[C@@H]3[C@@H](O[C@@H]3O[C@H](CO)[C@@H](O)[C@H](O)[C@H]3O[C@@H]3O[C@@H](C)[C@H](O)[C@@H](O)[C@H]3O)C[C@]12C.CC(C)=CCC[C@](C)(O[C@@H]1O[C@H](CO)[C@@H](O)[C@H](O)[C@H]1O)[C@H]1CC[C@]2(C)[C@@H]1[C@H](O)C[C@@H]1[C@@]3(C)CC[C@H](O)C(C)(C)[C@@H]3[C@@H](O[C@@H]3O[C@H](CO)[C@@H](O)[C@H](O)[C@H]3O[C@@H]3O[C@H](CO)[C@@H](O)[C@H](O)[C@H]3O)C[C@]12C | > 75 µM (inactive) | > 75 µM (inactive) | > 75 µM (inactive) |  | > 75 µM (inactive) | 60.3 µM (inactive) | 7.5 µM (inactive) | > 75 µM (inactive) | > 75 µM (inactive) | > 75 µM (inactive) | > 75 µM (inactive) | > 75 µM (inactive) | > 75 µM (inactive) | > 75 µM (inactive) | > 75 µM (inactive) | > 75 µM (inactive) | > 75 µM (inactive) | > 75 µM (inactive) | 28.2 µM (inactive) | > 75 µM (inactive)
16 | CN1C(=O)C2(c3ccccc31)C1CC3C(CO1)C1C2C3(CO)CN1C#N (stereo not drawn) | > 100 µM (inactive) | > 100 µM (inactive) | > 100 µM (inactive) |  | > 100 µM (inactive) | > 100 µM (inactive) | > 100 µM (inactive) | > 100 µM (inactive) | > 100 µM (inactive) | > 100 µM (inactive) | > 100 µM (inactive) | > 100 µM (inactive) | > 100 µM (inactive) | > 100 µM (inactive) | > 100 µM (inactive) | > 100 µM (inactive) | > 100 µM (inactive) | > 100 µM (inactive) | > 100 µM (inactive) | > 100 µM (inactive)
